Test results reported in patent US20250221936A1, “ENGINEERED HEMICHANNELS, ENGINEERED VESICLES, AND USES THEREOF” (VIRGINIA TECH INTELLECTUAL PROPERTIES, INC., priority 2018, published 2025).
Entries after “also recorded” stand apart in the source; their conditions may differ.

Tests used:
silicon wafer implants = conditions: 24 hours; cited from earlier work
[1] = target: T1, Cx43 CT (amino acids 255 to 382) (Rattus norvegicus, UniProt P08050); test: Surface plasmon resonance, Cx43 CT analyte; type: binding; conditions: biotin-peptide immobilized on streptavidin chip; analyte 0.5 to 15 μM
T1 construct: Cx43-CT: amino acids 255 to 382; GST (N, cleaved yes); made in house; host or cells: E. coli BL21
T1 sequence (P08050 255-382): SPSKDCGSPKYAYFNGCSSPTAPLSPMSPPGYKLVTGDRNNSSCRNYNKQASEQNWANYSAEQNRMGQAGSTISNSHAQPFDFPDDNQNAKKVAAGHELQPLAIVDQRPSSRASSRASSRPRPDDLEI
Protocol: (§1) Efficacy of the interaction of each alpha CT1 variant with Cx43 CT or Cx43 CT-KK/QQ was tested using surface plasmon resonance (SPR) as described previously 20. In brief, SPR experiments were performed using a Biacore T200 (GE Healthcare). Equal amounts (response units/RU) of biotin-alpha CT1 variants were immobilized on each flow cell of a streptavidin-coated sensor chip (Biacore Inc) using immobilization buffer (in mM: 10 HEPES, 1 EDTA, 100 NaCl, 0.005% Tween-20) at pH 7.4. Measurements with wild-type (wt) Cx43 CT and mutant Cx43 CT-KK/QQ analytes were done in running buffer (in mM: 10 HEPES, 100 NaCl, pH 7.4) at a flow rate of 30 μl/min. Binding of analytes were verified at different concentrations, in random order (injection volume 120 μl). Interacting proteins were then unbound by injection of […] regeneration buffer (50 mM NaOH and 1 M NaCl) at a flow rate of 10 μl/min. Background levels were obtained from a reference cell containing a biotin-control peptide in which the reversed sequence of the last 9 amino acids of Cx43 was fused to biotin-antennapedia. The RU values obtained with biotin-control peptide were subtracted from the RU values obtained with the different biotin-alphaCT1 variants (wild-type or mutant) to generate the different response curves.

Cx43 CT-KK/QQ = target: T2, Cx43 CT-KK/QQ (Rattus norvegicus, UniProt P08050, K345Q/K346Q); test: Surface plasmon resonance, Cx43 CT-KK/QQ analyte; type: binding; conditions: biotin-peptide immobilized on streptavidin chip
T2 construct: pGEX-6-P2 Cx43 CT amino acids 255-382; GST (N, cleaved yes); made in house; host or cells: E. coli BL21
T2 sequence (P08050 255-382 K345Q/K346Q): as the sequence (P08050 255-382) above, with K91Q, K92Q counted along it
Source text: Peptides were synthesized and quality checked for fidelity and purity using High Performance Liquid Chromatography and mass spectrometry (LifeTein, Hillsborough, NJ). Biotinylated peptides were designed for surface plasmon resonance experiments. Glutathione-S-Transferase (GST) fusion protein constructs composed of the Cx43-CT (pGEX-6-P2 Cx43 CT amino acids 255-382), ZO-1 PDZ1, PDZ2 and PDZ3 were isolated and purified from isopropyl-b-D-thiogalactoside (IPTG)-induced BL21 bacteria using standard procedures, described in references 13, 14, 20. The pGEX6p2-Cx43 CT plasmid was obtained from Prof. Paul L. Sorgen (University of Nebraska Medical Center, USA). Cx43 CT mutant (Cx43 CT-KK/QQ; amino acids Lys345 Lys346 to Gln 345 Gln 346) was developed by site-directed mutagenesis of the pGEX6p2-Cx43 CT plasmid (Agilent technologies, QuikChange II Site-Directed Mutagenesis Kit). The mutation was verified by sequencing. For surface plasmon resonance experiments, the GST was removed using PreScission protease, yielding Cx43 CT protein (wild-type or mutant).
as §1

Cx43 CT = target: T3, Cx43 CT (Rattus norvegicus, UniProt P08050); test: Protein thermal shift assay, Cx43 CT; type: binding; conditions: 500 μg/ml protein, 25-100 μM peptide
T3 construct: CT: amino acids 255 to 382) alone; GST (N); made in house; host or cells: E. coli BL21
T3 sequence (P08050 255-382): as the sequence (P08050 255-382) above
Protocol: (§2) Thermal stability of recombinant GST-PDZ2 or Cx43 CT in the presence or absence of peptides was determined in a 96-well format. Each assay well was composed of 500 μg/ml protein, 25-100 μM of each peptide in PBS buffer, pH7.4. All assays were performed independently six times. Samples were generally prepared in 96-well plates at final volumes of 20 μL. The fluorescent dye SYPRO Orange (5000× concentrate in DMSO, ThermoFisher, S6650) was added to a final concentration of 8X. Reactions were run on QuantStudio 6 Flex Real-Time PCR system (Applied Biosystems, part of Life Technologies Corporation, CA) according to the manufacturer's recommendations using a melt protocol in 0.05-degree/see increments from 25° C. to 95° C. The Reporter Dye was “ROX” and quencher Dye and passive reference were selected as “None” for the melt curve according to manufacturer's instructions. The data were analyzed using Protein Thermal Shift™ Software v1.3 package (Applied Biosystems, CA).

ZO-1 PDZ2 = target: T4, ZO-1 PDZ2 (Homo sapiens, UniProt Q07157); test: Protein thermal shift assay, ZO-1 PDZ2; type: binding; conditions: 500 μg/ml protein, 25-100 μM peptide
T4 construct: the second of the three PDZ (PDZ2) domains of ZO-1; made in house; host or cells: E. coli BL21
T4 sequence (Q07157 186-264 limits assumed): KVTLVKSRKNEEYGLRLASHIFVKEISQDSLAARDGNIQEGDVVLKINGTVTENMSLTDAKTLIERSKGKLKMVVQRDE
Protocol: as §2

[2] = target: T5, PKC-ε phosphorylation of Cx43-CT substrate at Ser368 (Rattus norvegicus, UniProt P08050); test: PKC-ε Cx43 CT S368 phosphorylation assay; type: biochemical; conditions: peptides at 20 μM
T5 construct: substrate (Cx43-CT: amino acids 255 to 382); GST (N); made in house; host or cells: E. coli BL21 (Cx43 CT); PKC-ε purchased (Life, 37717L)
T5 sequence (P08050 255-382): as the sequence (P08050 255-382) above
Protocol: PKC assay conditions were used to evaluate the PKC-ε phosphorylation of Cx43-CT substrate at Ser368 as we have described previously, with modifications 11. 400 ng/ml […] (Life, 37717L, Carlsbad, CA) was pre-diluted in enzyme dilution buffer (10 mM HEPES pH7.4, 0.01% CHAPS and 5 mM DTT) and assayed in 20 mM HEPES pH7.4, 10 mM/L MgCl2, 0.1 mM EGTA, 1× lipid mix (200 μg/ml phosphatidylserine (Avanti Polar Lipids 840032C),^20 μg/ml Diacylglycerol (Avanti Polar Lipids), 1 mM HEPES pH7.4, 0.03% CHAPS), 500 µM ATP (Sigma, A6419) and 14 μg/ml Cx43-CT substrate. Kinase assay buffer was supplemented with peptides to produce final concentrations of the reaction constituents, as indicated in figure legends. The mixture was incubated at 37° C. for 12 minutes and quenched by addition of LDS sample loading buffer (Bio Rad, 1610791). “XT sample buffer” is what was shown on the product label, whereas the component is similar as regular LDS buffer, containing about 5-10% lithium dodecyl sulphate. The reaction was Western blotted for pS368 Cx43 using the Phospho-Connexin43 (Ser368) antibody from Cell Signaling. Proteins were eluted off by stripping buffer (Millipore 2504) and re-probed for total Cx43 using the Sigma anti-rabbit antibody. Percent phosphorylation (% P) was quantified using Equation 1 and normalized with control group (PKC+, no peptide added).

[3] = test system: Neonatal cardiac fibroblasts (NHFs); test: Collagen synthesis by neonatal cardiac fibroblasts, Western blotting; type: cell-based, rat
Source text: Isolation and treatment of Neonatal Cardiac Fibroblasts with Cx43 based peptides (peptides used included ACT1, JM1, JM2, Antennapedia [ANT], reverse ACT1 [Rev], poly Arginine [poly r]). Said peptides with and without internalization vectors can be loaded into the provided EVs and can elicit results similar to those observed for naked peptide as follows. Neonatal cardiac fibroblasts (NHFs) were isolated from 3-4 day old rat hearts by collagenase digestion (100 U/mL) and differential attachment as previously described (Borg et ah, 1984). All cells were maintained in Dulbecco's Modified Eagle Medium (DMEM) supplemented with 10% Fetal Bovine Serum and 100 U/mL penicillin G and 100 μg/mL streptomycin and used prior to passage four. For experiments, 40,000 NHFs were plated into the wells of a 24-well tissue culture plate and grown for 24-48 hours. On the day of treatment, media was removed from each well and replaced with fresh media containing 50 μg/mL L-ascorbic acid-2-phosphate; Sigma Chemical Co., St. Louis, MO). The appropriate volume of each peptide (resuspended in sterile, deionized 18 MQ resistivity water) was added to achieve the desired final concentration (30, 90, 180 µM peptide concentrations were tested). Culture plates were incubated overnight in a 37° C. incubator with 5% C02.
Protein Isolation and Examination of Collagen Synthesis by Western Blotting. Conditioned culture media was collected from each well and stored at −20° C. for analysis of soluble collagen. Cellular protein, including insoluble collagen and collagen still within the NHFs, were isolated by adding 100-200 μL, of cell lysis buffer (0.01 M Tris, pH 7.4, 0.001 M Sodium Orthovanadate, 1% sodium dodecylsulfate [SDS]) to each well and incubating 10 minutes at room temperature. Prior to addition, cell lysis buffer was warmed to facilitate solubilization of SDS and 100 u L of Halt protease inhibitor (Pierce Biotechnology, Rockford, IL) was added per 10 mL buffer to be used. After incubation, the well bottoms were scraped and liquid transferred to a microcentrifuge tube for storage at −20° C. Protein concentrations of cell lysates were determined using a Micro BCA assay (Pierce). SDS-PAGE samples were prepared by combining either 10 μg of cell lysate or 30 μL of conditioned media with XT loading buffer (BioRad, Hercules, CA), dithiothreitol and boiled for five minutes. Samples were loaded onto 3-8% Tris-Acetate Criterion X T gels (BioRad, Hercules, CA) and proteins separated at 140V. After electrophoresis, proteins were transferred onto […] nitrocellulose membranes (BioRad) overnight at room temperature (Transfer buffer: 25 mM Tris, 192 mM Glycine, 20% Methanol, 0.01% SDS). The presence of collagen was determined by probing the membranes with a rabbit anti-mouse collagen type I antibody (MD Biosciences) at 1:20,000 dilution in blocking buffer (5% milk in Tris-buffered saline) followed by a goat anti-rabbit IgG horseradish peroxidase conjugated antibody at 1:100,000 (Southern Biotech Associates) and detection with Pierce SuperSignal Femto West detection reagent (Pierce). To assess the activity of JM1 and JM2 peptides with respect to collagen production and their potential in mediating wound healing, cardiac fibroblasts were treated with these two peptides and their effectiveness compared to that for the previous described Cx43 peptide ACT1. NHFs were treated with various concentrations of JM1, JM2, ACT1, and ANT (Antennapedia) peptides, vehicle (water) or left untreated and the production of collagen both in the culture media and cell-associated collagen assessed by western blotting. […] To evaluate the impact of the poly-Arginine (poly-r)N-terminal sequence on JM1 and Jm2 activity, NHF cells were treated with a poly-r peptide.

Cx43-HeLa = type: cell-based
Protocol: The first tests of JM1 and JM2 were performed and the experiments centered on the basic cell biology of the peptides.

Cx43-Hela cells = test: Cx43 and ZO-1 immunofluorescent labeling; type: cell-based; conditions: 10 μM for 2, 4, 24, or 48 hours
Protocol: Given that the 10UM concentration of peptide was not toxic to cells, the inventors treated Cx43-Hela cells with 10 μM JM1 or JM2 for 2, 4, 24, or 48 hours followed by fixation and immunofluorescent labeling of Cx43 and ZO-1. Said peptides can be loaded into the provided EVs and can elicit results similar to those observed for naked peptide as follows. […] However, the most striking effects were on ZO-1 organization. In control cells ZO-1 localized to cell borders, often at sites of small, finger-like projections between the cells. Cytoplasmic ZO-1 was also notable. In JM-treated cells a strong contrast in the ratio of cell border to cytoplasmic ZO-1 was found, with relative levels at cell borders being increased over controls. […] There was also a noticeable increase in the number of cells per area of field, supporting the earlier observation that JM2 treated cells appeared to proliferate and survive at an increased rate.

## apyrase
Silicon wafer implants
  inflammatory infiltrate: significantly reduced the inflammatory infiltrate

## Nc1ncnc2c1ncn2[C@@H]1O[C@H](COP(=O)(O)OP(=O)(O)OP(=O)(O)O)[C@@H](O)[C@H]1O [ATP]
Silicon wafer implants
  inflammatory infiltrate: profound increase in inflammatory infiltrate; also recorded: more inflammatory infiltrate than the surgery alone

## RQPKIWFPNRRKPWKK RPRPAALEI (RQPKIWFPNRRKPWKKRPRPAALEI) [M2 AALEI]
[1]
  SPR binding to Cx43 CT: abrogated peptide interaction with Cx43 CT; also recorded: limited ability to bind Cx43 CT
Cx43 CT-KK/QQ
  SPR binding to Cx43 CT-KK/QQ: unable mediate interactions
Cx43 CT
  Cx43 CT melt temperature (Tm): no propensity to alter Cx43 CT thermal stability
ZO-1 PDZ2
  PDZ2 melt temperature (Tm): did not alter the melt temperature of PDZ2
[2]
  Cx43 S368 phosphorylation: neither M1 AALAI (SEQ ID NO: 134), M2 AALEI (SEQ ID NO: 135) nor M3 DDLAI (SEQ ID NO: 136) increased Cx43 S368 phosphorylation

## VFFKGVKDRV [JM1]
[3]; 180 μM
  mature type I collagen in conditioned media: no mature type I collagen was detected
[3]; 30, 90, 180 µM
  mature type I collagen in conditioned media: dose-dependent decrease in the production of mature, type I collagen
[3]; about 90 μM
  collagen produced versus poly-r peptide: less than half of that produced by cells treated with the poly-r peptide
[3]; versus ACT1 peptide
  mature type I collagen in cell lysate: more profound reduction in the amount of mature type I collagen
Cx43-HeLa
  toxicity (cell death): no obvious toxicity
Cx43-Hela cells
  Cx43 and ZO-1 localization: greater cytoplasmic Cx43 was observed; also recorded: ZO-1 cell border labeling was enhanced
Silicon wafer implants
  tissue reaction zone: substantially narrower tissue reaction zone
